According to patent US4309432A, “Compositions for treating glaucoma containing a carbostyril” (priority 1979, dated 1982):
“And” between values parts separate entries of the source, which are not always exact repeats. Identical values can stand only once. Counter-ions that a name gives are not always drawn.

Legend:
mice = assay: Acute Toxicity Test, intravenous, mice; format: in vivo
Experimental: (§1) Active compounds useful for the glaucoma treating compositions of this invention are intravenously administered to mice to test the compounds for acute toxicity.
(§2) Other active compounds of this invention are also tested for acute toxicity in the same manner as above, i.e., by intravenously administering them to mice. The LD50 values determined are all not lower than about 40 mg/kg.

intraocular pressure = assay: Efficacy Test 3: intraocular pressure in normal rabbits (Alcon pneumatic tonometer); format: in vivo, rabbit (male New Zealand Albino); conditions: for Intraocular pressure 30 minutes after instillation, average / Intraocular pressure 1 hour after instillation, average / Intraocular pressure 30 minutes after instillation / Intraocular pressure 1 hour after instillation: 1% (W/V), 100 μl
Experimental: Male rabbits of New Zealand Albino strain, weighing 1.8 to 2.5 kg, are used as experimental animals. Intraocular pressure is measured with an Alcon pneumatic tonometer without local anesthesia, while holding the animal in a cylindrical rabbit holder.
The test compound is dissolved in a physiological solution of NaCl to a concentration of 1% (W/V), and the resulting solution is adjusted to a pH of 6.5 to 7.0 with a 0.01 N aqueous NaOH solution. The solution is instilled to one of the eyes of the animal in an accurate amount of 100 μl with a microsyringe after measuring the intraocular pressure of the eye. The eyelid is held closed for 1 minute after the instillation to prevent the escape of the solution.
The efficacy of the test compound is determined by measuring the intraocular pressure 30 minutes and 1 hour after the instillation and comparing the measurements with the pressure measured before the instillation. A 100 μl quantity of physiological saline containing no test compound is similarly tested on a control group.

[1] = Acute Toxicity Test, intravenous, mice; format: in vivo; conditions: mouse, in vivo
Experimental: as §1, §2

[2] = Acute toxicity, oral administration, male rats; conditions: rat, in vivo
Excerpt: *Determined by the oral administration of Compound C to male rats.

Row | SMILES | Intraocular pressure 30 minutes after instillation, average (intraocular pressure; average of animals) | Intraocular pressure 1 hour after instillation, average (intraocular pressure; average of animals) | further results
1 | CC(C)(C)NCC(O)COc1cccc2c1CCC(=O)N2 (centres unmarked) [Compound A, 5-(2-Hydroxy-3-tert-butylamino)propoxy-3,4-dihydrocarbostyril hydrochloride] | 17.2 mm Hg | 17.4 mm Hg | LD50 (mice): 54.4 mg/kg
2 | CC(C)(C)NCC(O)COc1cccc2[nH]c(=O)ccc12 (centres unmarked) [Compound B, 5-(2-Hydroxy-3-tert-butylamino)propoxycarbostyril hydrochloride] | 17.0 mm Hg | 16.5 mm Hg | LD50 [1]: 44.6 mg/kg
3 | COc1ccc(CCNCC(O)COc2ccc(OCC(C)=O)c3c2CCC(=O)N3)cc1OC (stereo not drawn) [Compound C, 8-Methylcarbonylmethoxy-5-[2-hydroxy-3-(β-3,4-dimethoxyphenethylamino)]propoxy-3,4-dihydrocarbostyril oxalate] | 17.0 mm Hg | 17.0 mm Hg | LD50 [2]: 1260 mg/kg
4 | COc1ccc(CCNCC(O)COc2ccc(O)c3c2CCC(=O)N3)cc1OC (stereo not drawn) [Compound D, 8-Hydroxy-5-[2-hydroxy-3-(β-3,4-dimethoxyphenethylamino)]propoxy-3,4-dihydrocarbostyril hydrochloride] | 17.0 mm Hg | 14.0 mm Hg | Intraocular pressure 30 minutes after instillation (intraocular pressure; individual animal): 17 mm Hg
5 | CCNCC(O)COc1cccc2c1CCC(=O)N2 (centres unmarked) [Compound E, 5-(2-Hydroxy-3-ethylamino)propoxy-3,4-dihydrocarbostyril maleate] | 18.0 mm Hg | 17.0 mm Hg | 
6 | O=C1CCc2c(cccc2OCC(O)CNCc2ccccc2)N1 (centres unmarked) [Compound F, 5-(2-Hydroxy-3-benzylamino)propoxy-3,4-dihydrocarbostyril hydrochloride] | 18.5 mm Hg | 18.5 mm Hg | 
7 | O=C1CCc2c(cccc2OCC(O)CNC2CCCCC2)N1 (centres unmarked) [Compound G, 5-(2-Hydroxy-3-cyclohexylamino)propoxy-3,4-dihydrocarbostyril hydrochloride] | 16.5 mm Hg | 16.5 mm Hg | 
8 | CCN1C(=O)CCc2c(OCC(O)CNC3CCCCC3)cccc21 (centres unmarked) [Compound H, 1-Ethyl-5-(2-hydroxy-3-cyclohexylamino)propoxy-3,4-dihydrocarbostyril hydrochloride] | 15.5 mm Hg | 15.5 mm Hg | 
9 | CC(C)NCC(O)COc1cccc2c1NC(=O)CC2 (centres unmarked) [Compound I, 8-(2-Hydroxy-3-isopropylamino)propoxy-3,4-dihydrocarbostyril hydrochloride] | 16.5 mm Hg | 16.5 mm Hg | LD50 [1]: 81.6 mg/kg
10 | COc1ccc(CCNCC(O)COc2ccc(NC(N)=O)c3c2CCC(=O)N3)cc1OC (stereo not drawn) [Compound J, 8-Ureido-5-[2-hydroxy-3-(β-3,4-dimethoxyphenethylamino)]propoxy-3,4-dihydrocarbostyril hydrochloride] | 17.5 mm Hg | 17.0 mm Hg | LD50 [1]: 143 mg/kg
11 | C#CCOc1ccc(OCC(O)CNCCc2ccc(OC)c(OC)c2)c2c1NC(=O)CC2.O=C(O)C(=O)O (stereo not drawn) [Compound K, 8-Propynyloxy-5-[2-hydroxy-3-(β-3,4-dimethoxyphenethylamino)]propoxy-3,4-dihydrocarbostyril oxalate] | 18.5 mm Hg | 18.0 mm Hg | Intraocular pressure before instillation, average (intraocular pressure; average of animals, baseline): 19.5 mm Hg; Intraocular pressure 30 minutes after instillation (intraocular pressure; individual animal): 19 mm Hg and 18 mm Hg; Intraocular pressure 1 hour after instillation (intraocular pressure; individual animal): 18 mm Hg; Intraocular pressure before instillation (intraocular pressure; individual animal, baseline): 20 mm Hg and 19 mm Hg
12 | COc1ccc(CCNCC(O)COc2ccc(NC(C)=O)c3c2CCC(=O)N3)cc1OC (stereo not drawn) [Compound L, 8-Acetylamino-5-[2-hydroxy-3-(β-3,4-dimethoxyphenethylamino)]propoxy-3,4-dihydrocarbostyril hydrochloride] | 18.0 mm Hg | 17.5 mm Hg | Intraocular pressure 30 minutes after instillation (intraocular pressure; individual animal): 18 mm Hg
13 | C=CCOc1ccc(OCC(O)CNC(C)(C)C)c2c1NC(=O)CC2 (centres unmarked) [Compound M, 8-Allyloxy-5-(2-hydroxy-3-tert-butylamino)propoxy-3,4-dihydrocarbostyril hydrochloride] | 19.0 mm Hg | 18.0 mm Hg | Intraocular pressure 30 minutes after instillation (intraocular pressure; individual animal): 19 mm Hg; Intraocular pressure 1 hour after instillation (intraocular pressure; individual animal): 18 mm Hg
14 | C=CCN1C(=O)CCc2c(OCC(O)CNC(C)(C)C)cccc21 (centres unmarked) [Compound N, 1-Allyl-5-(2-hydroxy-3-tert-butylamino)propoxy-3,4-dihydrocarbostyril hydrochloride] | 17.5 mm Hg | 16.5 mm Hg | 
